Where two headings read alike, the source gives them in different places.

The subject of the assay is T1, β-tubulin.
T1 construct: gene TUBB; endogenous untagged beta-tubulin (isotypes not resolved) in microtubules with alpha-tubulin, intact human cancer cells
Put plainly: isothermal dose response CETSA, AlphaLISA. Type of assay: cell-based. (Alpha assays give light when donor and acceptor beads are brought close together.)

In turn, `CC(=O)O[C@H]1C(=O)[C@@]2(C)[C@H]([C@H](OC(=O)c3ccccc3)[C@]3(O)C[C@H](OC(=O)[C@H](O)[C@@H](NC(=O)c4ccccc4)c4ccccc4)C(C)=C1C3(C)C)[C@]1(OC(C)=O)CO[C@@H]1C[C@@H]2O` [paclitaxel] displayed an EC50 of 1550 ± 300 nM.

Regarding `CC(=O)O[C@@]12CO[C@@H]1C[C@H](O)[C@@]1(C)C(=O)[C@H](O)C3=C(C)[C@@H](OC(=O)[C@H](O)[C@@H](NC(=O)OC(C)(C)C)c4ccccc4)C[C@@](O)([C@@H](OC(=O)c4ccccc4)[C@H]21)C3(C)C` [docetaxel], the EC50 (intact K562-P cells, 1 h 45 min at 37 °C, heated 63 °C 3 min, no tariquidar, taxane site, read-out: EC50) turned out to be 300 ± 80 nM. With `CCC1=C[C@@H]2CN(C1)Cc1c([nH]c3ccccc13)[C@@](C(=O)OC)(c1cc3c(cc1OC)N(C)[C@H]1[C@@](O)(C(=O)OC)[C@H](OC(C)=O)[C@]4(CC)C=CCN5CC[C@]31[C@@H]54)C2` [vinorelbine], for the setting “intact PC346C prostate cancer cells, heated 63 °C, vinca site, read-out: EC50”, the EC50 is 2020 ± 310 nM.

The EC50 is the concentration that produces a half-maximal response.

Source of the values: paper PMC6920357, “CETSA-based target engagement of taxanes as biomarkers for efficacy and resistance” (Scientific Reports, 2019).
